Results from ChEMBL document CHEMBL1201862, “PubChem BioAssay data set” (2004).
Activity calls are given as the source filed them.

What was measured:
[1] = biological target: DNA dC->dU-editing enzyme APOBEC-3A (Homo sapiens, UniProt P31941); experiment: Dose Response confirmation of small molecule APOBEC3A DNA Deaminase Inhibitors via a fluorescence-based single-stranded DNA deaminase assay. [Related pubchem assays (depositor defined):AID493011, AID493024]; type: functional
[2] = biological target: DNA dC->dU-editing enzyme APOBEC-3G (Homo sapiens, UniProt Q9HC16); type: functional;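 also: Dose-response counterscreen measuring inhibition of APOBEC3G DNA deaminase activity, run while confirming APOBEC3A inhibitors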
SUMO-activating enzyme [3] = biological target: T1, SUMO-activating enzyme (Homo sapiens, UniProt Q9UBT2); experiment: blockers of UBC9-mediated SUMO conjugation – biochemical, AlphaScreen, SUMOylation inhibitor project, confirmation (AID 2018); type: functional
Vero [4] = experiment: cells; type: functional; settings: Chlorocebus sabaeus
SUMO-activating enzyme [5] = biological target: T1, SUMO-activating enzyme; experiment: blockers of SAE1/SAE2–UBC9 SUMO transfer – biochemical, HTRF, uHTS, primary screen (AID 2006); type: protein-complex assay
[6] = biological target: T2, Microphthalmia-associated transcription factor (Homo sapiens, UniProt O75030); experiment: reducers of TRPM1 reporter luminescence, concentration series – cell-based, SK-MEL-5, cherry-picked, set 3, MITF inhibitor project, dose response (AID 493073); type: functional;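 also: SK-MEL-5 melanoma cells with luciferase driven by the MITF target TRPM1 promoter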
T2 sequence (O75030 whole entry): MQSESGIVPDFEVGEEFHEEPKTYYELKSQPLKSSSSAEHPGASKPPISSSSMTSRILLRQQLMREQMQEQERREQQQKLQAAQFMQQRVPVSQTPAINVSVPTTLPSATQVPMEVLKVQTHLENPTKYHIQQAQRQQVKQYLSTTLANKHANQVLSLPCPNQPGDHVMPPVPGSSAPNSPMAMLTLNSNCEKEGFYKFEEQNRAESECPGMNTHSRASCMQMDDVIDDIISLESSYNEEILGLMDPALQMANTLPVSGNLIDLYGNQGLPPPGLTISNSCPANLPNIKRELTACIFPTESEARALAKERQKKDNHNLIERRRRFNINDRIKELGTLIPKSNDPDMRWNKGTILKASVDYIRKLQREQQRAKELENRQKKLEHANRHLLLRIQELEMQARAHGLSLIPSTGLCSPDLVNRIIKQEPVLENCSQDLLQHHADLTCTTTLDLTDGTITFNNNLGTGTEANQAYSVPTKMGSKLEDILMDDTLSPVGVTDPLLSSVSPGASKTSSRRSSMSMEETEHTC

Genome polyprotein = Genome polyprotein (dengue virus type 2, UniProt P29990); experiment: flavivirus cap methylation enzyme inhibition – biochemical, confirmation dose response, primary screen (AID 588689); type: functional
Vero [7] = experiment: viability of Vero cells under compound – cytotoxicity control for flavivirus capping enzyme inhibitors (AID 588742); type: functional; settings: Chlorocebus sabaeus
[8] = biological target: DNA (cytosine-5)-methyltransferase 1 (Homo sapiens, UniProt P26358); experiment: inhibition of DNA methylation by DNMT1 – biochemical, fluorescent molecular beacon, confirmation (AID 602386); type: functional
Large T antigen = Large T antigen (Simian virus 40, UniProt P03070); type: functional, Betapolyomavirus macacae;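 also: Confirmatory-stage PubChem screen for compounds that inhibit SV40 T antigen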
[9] = biological target: T3, Heat shock factor protein 1 (Mus musculus, UniProt P38532); experiment: enhancement of HSF1-driven luciferase signal – cell-based, NIH3T3, luminescence, dose retest, confirmation (AID 435004); type: functional;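 also: stress induced by proteasome inhibitor MG132 added 30 min after compound; luciferase reporter driven by HSF1 response element in NIH3T3 cells; actives raise luminescence as potentiators of the MG132 stress response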
T3 sequence (P38532 whole entry): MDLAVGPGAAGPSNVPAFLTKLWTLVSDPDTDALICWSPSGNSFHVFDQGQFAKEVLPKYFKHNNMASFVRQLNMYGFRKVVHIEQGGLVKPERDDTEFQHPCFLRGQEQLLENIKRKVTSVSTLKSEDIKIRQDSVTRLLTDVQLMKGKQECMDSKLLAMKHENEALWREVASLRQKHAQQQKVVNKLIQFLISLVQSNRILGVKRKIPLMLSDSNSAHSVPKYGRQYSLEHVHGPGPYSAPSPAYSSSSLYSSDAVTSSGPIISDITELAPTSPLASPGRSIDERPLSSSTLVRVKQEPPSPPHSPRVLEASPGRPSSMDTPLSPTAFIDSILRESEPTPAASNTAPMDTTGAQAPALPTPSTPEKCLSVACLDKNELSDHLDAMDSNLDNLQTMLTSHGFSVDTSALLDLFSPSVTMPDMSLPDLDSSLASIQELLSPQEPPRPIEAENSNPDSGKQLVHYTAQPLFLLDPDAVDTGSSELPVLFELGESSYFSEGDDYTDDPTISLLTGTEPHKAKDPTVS

[10] = biological target: Induced myeloid leukemia cell differentiation protein Mcl-1 (Homo sapiens, UniProt Q07820); type: functional
Estrogen receptor beta = Estrogen receptor beta (Homo sapiens, UniProt Q92731); experiment: blockers of SRC-3 recruitment to ERβ – biochemical, ELISA, streptavidin-HRP readout, orthogonal assay, confirmation (AID 1060)
ORF 73 = ORF 73 (Human herpesvirus 8, UniProt O40947); experiment: KSHV LANA DNA-binding disruption – biochemical, fluorescence polarization, cherry-picked samples, dose response (AID 504725); set-up: species or system Human gammaherpesvirus 8;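 also: fluorescence polarization of a labeled DNA duplex reporting LANA DNA binding; potency is for inhibitors that block LANA binding to the DNA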
Leucine aminopeptidase = biological target: T4, Leucine aminopeptidase (Plasmodium falciparum 3D7, UniProt Q8IL11); experiment: P. falciparum M17LAP inhibitors, primary screen, biochemical, fluorogenic H-Leu-NHMec substrate, 1536-well (AID 1619); type: functional
T4 sequence (Q8IL11 whole entry): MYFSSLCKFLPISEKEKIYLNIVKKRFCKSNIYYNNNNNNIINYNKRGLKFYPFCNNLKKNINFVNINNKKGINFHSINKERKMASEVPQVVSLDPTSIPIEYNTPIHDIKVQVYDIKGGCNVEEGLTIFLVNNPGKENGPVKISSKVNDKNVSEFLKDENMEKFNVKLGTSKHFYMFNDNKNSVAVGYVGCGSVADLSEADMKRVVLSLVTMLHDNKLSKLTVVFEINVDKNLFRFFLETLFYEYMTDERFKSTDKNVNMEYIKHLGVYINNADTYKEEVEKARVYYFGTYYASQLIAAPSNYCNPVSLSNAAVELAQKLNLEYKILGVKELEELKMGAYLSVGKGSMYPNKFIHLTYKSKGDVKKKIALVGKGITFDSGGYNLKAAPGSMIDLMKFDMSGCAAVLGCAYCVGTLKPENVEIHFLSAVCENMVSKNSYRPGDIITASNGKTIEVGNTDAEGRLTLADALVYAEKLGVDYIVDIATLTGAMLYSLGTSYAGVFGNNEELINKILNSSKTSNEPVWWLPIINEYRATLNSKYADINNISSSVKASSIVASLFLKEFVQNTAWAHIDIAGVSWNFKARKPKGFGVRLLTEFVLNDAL

[11] = viability loss in THP-1 monocytes – THP-1 cells, cytotoxicity control for Vif-APOBEC3G degradation inhibitor project, dose response (AID 1117359); type: functional; settings: THP-1
[12] = biological target: Acyl-homoserine lactone acylase PvdQ (Pseudomonas aeruginosa (strain LESB58), UniProt Q9I194); experiment: PvdQ acylase enzyme activity blockers – biochemical, fluorescence, plate reader and imaging, cherry-picks, dose response (AID 493231)
[13] = biological target: G-protein coupled receptor 55 (Homo sapiens, UniProt Q9Y2T6); experiment: inhibition of LPI-stimulated GPR55 beta-arrestin translocation – imaging, U2OS, beta-arrestin-GFP, LPI agonist, primary screen (AID 2013); type: functional;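 also: antagonist potency measured as reduced agonist-driven arrestin aggregation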
[14] = biological target: T5, Tyrosine-protein phosphatase non-receptor type 7 (Homo sapiens, UniProt P35236); type: functional
T5 sequence (P35236 whole entry): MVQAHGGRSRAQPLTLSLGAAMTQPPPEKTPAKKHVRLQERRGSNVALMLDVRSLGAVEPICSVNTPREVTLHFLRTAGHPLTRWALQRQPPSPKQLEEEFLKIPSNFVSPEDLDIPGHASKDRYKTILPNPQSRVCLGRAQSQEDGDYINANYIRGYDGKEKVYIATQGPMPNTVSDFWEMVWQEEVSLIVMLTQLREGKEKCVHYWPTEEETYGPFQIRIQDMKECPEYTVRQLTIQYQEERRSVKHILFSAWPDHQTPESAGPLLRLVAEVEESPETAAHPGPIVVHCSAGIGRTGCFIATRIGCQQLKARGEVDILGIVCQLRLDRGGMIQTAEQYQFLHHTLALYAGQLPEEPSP

[15] = biological target: Glyceraldehyde-3-phosphate dehydrogenase (Homo sapiens, UniProt P04406)
[16] = biological target: T6, Dual specificity protein phosphatase 6 (Rattus norvegicus, UniProt Q64346)
T6 sequence (Q64346 whole entry): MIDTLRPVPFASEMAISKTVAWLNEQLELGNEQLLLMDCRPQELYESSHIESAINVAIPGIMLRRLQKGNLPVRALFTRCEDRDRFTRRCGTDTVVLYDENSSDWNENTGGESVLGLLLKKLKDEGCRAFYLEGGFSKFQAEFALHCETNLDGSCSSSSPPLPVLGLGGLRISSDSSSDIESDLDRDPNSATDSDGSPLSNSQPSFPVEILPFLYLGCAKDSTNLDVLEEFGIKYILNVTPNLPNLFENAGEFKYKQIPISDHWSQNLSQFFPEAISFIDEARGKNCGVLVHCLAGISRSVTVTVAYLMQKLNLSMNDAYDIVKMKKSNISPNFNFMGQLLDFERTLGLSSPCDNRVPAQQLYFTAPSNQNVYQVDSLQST

[17] = biological target: T6, Dual specificity protein phosphatase 6; type: functional
[18] = biological target: Eukaryotic translation initiation factor 4E (Mus musculus, UniProt P63073); experiment: blockers of eIF4G binding by eIF4E – biochemical, TR-FRET, dose response (AID 855); type: functional;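 also: potency for disrupting eIF4E binding to eIF4GI seen as loss of FRET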
X-box-binding protein 1 = X-box-binding protein 1 (Homo sapiens, UniProt P17861); type: functional, Cricetulus griseus;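 also: confirmatory dose-response counter-screen serving a CHOP assay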
[19] = biological target: T3, Heat shock factor protein 1; experiment: decrease of HSF1-responsive luciferase luminescence – cell-based, NIH3T3, dose retest, confirmation (AID 2382); type: functional;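 also: NIH3T3 fibroblasts with HSF1-driven luciferase reporter stressed by proteasome inhibitor MG132; luminescence from HSF1-driven luciferase expression after 8 hours of MG132 stress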
Mu-type opioid receptor = Mu-type opioid receptor (Homo sapiens, UniProt P35372); type: functional, cell-based;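 also: U2OS cells with beta-arrestin recruitment to OPRM1 by beta-gal complementation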
Streptococcus = experiment: GAS UMAA2166 growth inhibition – luminescence, BacTiterGlo, counter-screen for streptokinase expression inhibitor project, dose response (AID 1915); type: functional, organism-based;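 also: potency for reduction of bacterial viability or growth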
[20] = tested on: Streptococcus sp. 'group A'; experiment: Streptococcus pyogenes SK(-)GAS viability under kanamycin – luminescence, BacTiterGlo, confirmation, counter-screen for streptokinase expression inhibitor project, dose response (AID 1900); type: functional, organism-based
Streptokinase A = biological target: T7, Streptokinase A (Streptococcus pyogenes serotype M1, UniProt P10520); experiment: viability-normalized secreted streptokinase activity reduction – plasminogen activation absorbance, OD405, dose response (AID 1914); type: functional, Streptococcus pyogenes M1 GAS;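 also: secreted streptokinase activity via plasminogen activation per viability signal from cell pellet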
T7 sequence (P10520 whole entry): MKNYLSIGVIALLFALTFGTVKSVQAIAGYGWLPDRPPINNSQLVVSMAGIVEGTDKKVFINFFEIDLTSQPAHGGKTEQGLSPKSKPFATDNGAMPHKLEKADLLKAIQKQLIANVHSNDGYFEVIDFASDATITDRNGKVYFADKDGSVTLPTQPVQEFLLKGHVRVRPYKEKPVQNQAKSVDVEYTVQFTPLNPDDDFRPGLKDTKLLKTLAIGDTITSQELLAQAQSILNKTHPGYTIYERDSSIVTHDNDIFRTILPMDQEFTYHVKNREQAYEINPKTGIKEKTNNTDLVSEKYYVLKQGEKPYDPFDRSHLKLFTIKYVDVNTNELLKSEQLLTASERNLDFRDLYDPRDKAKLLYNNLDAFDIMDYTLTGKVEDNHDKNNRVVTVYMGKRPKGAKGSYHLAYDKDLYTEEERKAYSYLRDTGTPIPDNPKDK

[21] = biological target: 5-hydroxytryptamine receptor 2A (Mus musculus, UniProt P35363); type: functional, cell-based;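 also: CHO-K1 cells with tagged receptor and beta-arrestin; agonist potency measured as compound-induced activation of the receptor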
[22] = toxicity toward cultured mammalian cells – cell-based, plate reader, cherry-pick samples, cytotoxicity control, dose response (AID 504397); type: functional

T1 sequence (Q9UBE0 whole entry): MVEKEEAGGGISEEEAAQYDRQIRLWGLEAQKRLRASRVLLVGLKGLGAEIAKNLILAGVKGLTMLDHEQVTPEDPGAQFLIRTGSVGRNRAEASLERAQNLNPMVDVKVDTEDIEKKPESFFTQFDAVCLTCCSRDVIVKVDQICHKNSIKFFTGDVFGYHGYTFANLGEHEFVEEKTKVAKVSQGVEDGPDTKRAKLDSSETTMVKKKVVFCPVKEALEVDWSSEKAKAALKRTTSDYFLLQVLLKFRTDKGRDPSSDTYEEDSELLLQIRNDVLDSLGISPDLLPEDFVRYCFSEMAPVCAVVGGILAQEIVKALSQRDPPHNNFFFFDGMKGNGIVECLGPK
T1 sequence (Q9UBT2 whole entry): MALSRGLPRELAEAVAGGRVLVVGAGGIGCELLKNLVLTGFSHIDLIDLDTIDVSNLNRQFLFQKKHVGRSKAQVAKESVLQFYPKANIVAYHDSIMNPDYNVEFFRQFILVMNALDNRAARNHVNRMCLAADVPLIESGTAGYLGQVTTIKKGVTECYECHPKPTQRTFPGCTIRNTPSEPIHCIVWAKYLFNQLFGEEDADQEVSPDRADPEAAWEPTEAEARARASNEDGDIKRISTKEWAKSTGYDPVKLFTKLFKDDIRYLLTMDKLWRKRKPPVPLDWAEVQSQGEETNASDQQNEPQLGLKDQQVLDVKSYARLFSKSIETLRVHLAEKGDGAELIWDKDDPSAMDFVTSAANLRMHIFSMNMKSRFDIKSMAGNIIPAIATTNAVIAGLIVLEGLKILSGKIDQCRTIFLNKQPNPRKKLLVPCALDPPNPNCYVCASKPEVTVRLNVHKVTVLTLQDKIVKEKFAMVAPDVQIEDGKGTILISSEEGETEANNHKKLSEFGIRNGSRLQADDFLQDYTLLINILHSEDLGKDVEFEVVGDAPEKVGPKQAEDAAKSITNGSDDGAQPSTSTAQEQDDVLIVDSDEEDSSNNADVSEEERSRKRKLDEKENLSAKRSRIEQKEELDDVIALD
G-protein coupled receptor 55, sequence (Q9Y2T6 whole entry): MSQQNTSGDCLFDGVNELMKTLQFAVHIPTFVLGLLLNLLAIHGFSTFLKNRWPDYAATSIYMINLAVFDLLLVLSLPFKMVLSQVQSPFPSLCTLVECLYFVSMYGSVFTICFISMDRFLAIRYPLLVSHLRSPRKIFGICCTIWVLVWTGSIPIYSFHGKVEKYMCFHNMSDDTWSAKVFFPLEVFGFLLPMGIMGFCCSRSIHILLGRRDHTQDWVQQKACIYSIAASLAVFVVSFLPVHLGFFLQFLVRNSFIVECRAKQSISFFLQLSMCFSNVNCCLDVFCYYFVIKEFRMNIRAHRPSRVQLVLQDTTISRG
X-box-binding protein 1, sequence (P17861 whole entry): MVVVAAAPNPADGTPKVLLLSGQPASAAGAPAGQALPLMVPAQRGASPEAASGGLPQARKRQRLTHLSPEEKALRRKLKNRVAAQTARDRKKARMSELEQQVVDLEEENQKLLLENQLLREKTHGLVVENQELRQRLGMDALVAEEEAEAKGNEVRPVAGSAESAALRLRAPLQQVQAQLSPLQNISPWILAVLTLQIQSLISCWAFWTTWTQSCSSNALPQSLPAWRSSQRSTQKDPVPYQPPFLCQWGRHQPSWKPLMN
Induced myeloid leukemia cell differentiation protein Mcl-1, sequence (Q07820 whole entry): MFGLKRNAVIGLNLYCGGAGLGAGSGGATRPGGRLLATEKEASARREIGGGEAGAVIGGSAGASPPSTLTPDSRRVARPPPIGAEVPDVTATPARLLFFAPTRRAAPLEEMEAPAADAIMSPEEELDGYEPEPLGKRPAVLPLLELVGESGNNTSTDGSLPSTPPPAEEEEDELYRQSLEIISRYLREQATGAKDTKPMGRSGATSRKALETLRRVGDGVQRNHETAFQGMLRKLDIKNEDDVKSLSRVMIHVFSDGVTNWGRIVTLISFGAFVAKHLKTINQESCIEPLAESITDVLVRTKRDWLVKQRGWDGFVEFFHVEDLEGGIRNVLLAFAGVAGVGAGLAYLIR
Acyl-homoserine lactone acylase PvdQ, sequence (Q9I194 24-193 limits assumed): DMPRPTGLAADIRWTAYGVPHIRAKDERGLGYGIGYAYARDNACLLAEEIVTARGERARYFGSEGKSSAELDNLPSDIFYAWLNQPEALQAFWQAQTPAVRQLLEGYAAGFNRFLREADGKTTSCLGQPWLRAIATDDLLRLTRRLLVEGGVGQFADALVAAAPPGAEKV
Acyl-homoserine lactone acylase PvdQ, sequence (Q9I194 217-762 limits assumed): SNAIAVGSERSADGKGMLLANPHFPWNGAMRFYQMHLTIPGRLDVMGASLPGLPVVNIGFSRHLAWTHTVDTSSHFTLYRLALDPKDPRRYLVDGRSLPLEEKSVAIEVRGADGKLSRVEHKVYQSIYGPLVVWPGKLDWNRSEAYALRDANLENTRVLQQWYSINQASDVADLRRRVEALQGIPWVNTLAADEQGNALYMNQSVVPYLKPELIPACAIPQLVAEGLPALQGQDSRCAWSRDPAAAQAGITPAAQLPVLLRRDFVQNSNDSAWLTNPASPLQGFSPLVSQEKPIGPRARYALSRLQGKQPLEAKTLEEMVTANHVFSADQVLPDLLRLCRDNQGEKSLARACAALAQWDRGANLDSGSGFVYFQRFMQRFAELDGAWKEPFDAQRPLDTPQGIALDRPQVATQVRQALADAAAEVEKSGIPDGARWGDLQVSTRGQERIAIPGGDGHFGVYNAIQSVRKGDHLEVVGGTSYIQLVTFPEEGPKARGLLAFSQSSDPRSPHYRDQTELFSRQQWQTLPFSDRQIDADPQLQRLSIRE
Large T antigen, sequence (P03070 whole entry): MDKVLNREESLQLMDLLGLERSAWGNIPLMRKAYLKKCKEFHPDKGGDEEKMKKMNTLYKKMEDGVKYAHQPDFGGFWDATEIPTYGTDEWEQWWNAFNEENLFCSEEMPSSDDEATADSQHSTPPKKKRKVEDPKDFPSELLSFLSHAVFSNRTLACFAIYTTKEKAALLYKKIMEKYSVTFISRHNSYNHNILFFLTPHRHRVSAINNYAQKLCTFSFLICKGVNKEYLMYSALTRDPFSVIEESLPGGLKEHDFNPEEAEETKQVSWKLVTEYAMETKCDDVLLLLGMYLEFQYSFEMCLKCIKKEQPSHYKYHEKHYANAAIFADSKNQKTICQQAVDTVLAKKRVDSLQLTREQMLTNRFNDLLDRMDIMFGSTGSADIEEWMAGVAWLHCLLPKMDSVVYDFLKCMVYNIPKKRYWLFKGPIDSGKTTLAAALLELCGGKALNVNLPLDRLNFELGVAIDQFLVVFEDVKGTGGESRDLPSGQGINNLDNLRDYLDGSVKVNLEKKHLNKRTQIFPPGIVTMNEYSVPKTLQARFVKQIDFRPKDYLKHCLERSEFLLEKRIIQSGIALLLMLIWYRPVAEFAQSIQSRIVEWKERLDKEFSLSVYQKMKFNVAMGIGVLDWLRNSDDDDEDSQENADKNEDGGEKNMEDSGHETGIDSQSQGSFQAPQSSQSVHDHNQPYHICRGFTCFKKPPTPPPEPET
ORF 73, sequence (O40947 whole entry): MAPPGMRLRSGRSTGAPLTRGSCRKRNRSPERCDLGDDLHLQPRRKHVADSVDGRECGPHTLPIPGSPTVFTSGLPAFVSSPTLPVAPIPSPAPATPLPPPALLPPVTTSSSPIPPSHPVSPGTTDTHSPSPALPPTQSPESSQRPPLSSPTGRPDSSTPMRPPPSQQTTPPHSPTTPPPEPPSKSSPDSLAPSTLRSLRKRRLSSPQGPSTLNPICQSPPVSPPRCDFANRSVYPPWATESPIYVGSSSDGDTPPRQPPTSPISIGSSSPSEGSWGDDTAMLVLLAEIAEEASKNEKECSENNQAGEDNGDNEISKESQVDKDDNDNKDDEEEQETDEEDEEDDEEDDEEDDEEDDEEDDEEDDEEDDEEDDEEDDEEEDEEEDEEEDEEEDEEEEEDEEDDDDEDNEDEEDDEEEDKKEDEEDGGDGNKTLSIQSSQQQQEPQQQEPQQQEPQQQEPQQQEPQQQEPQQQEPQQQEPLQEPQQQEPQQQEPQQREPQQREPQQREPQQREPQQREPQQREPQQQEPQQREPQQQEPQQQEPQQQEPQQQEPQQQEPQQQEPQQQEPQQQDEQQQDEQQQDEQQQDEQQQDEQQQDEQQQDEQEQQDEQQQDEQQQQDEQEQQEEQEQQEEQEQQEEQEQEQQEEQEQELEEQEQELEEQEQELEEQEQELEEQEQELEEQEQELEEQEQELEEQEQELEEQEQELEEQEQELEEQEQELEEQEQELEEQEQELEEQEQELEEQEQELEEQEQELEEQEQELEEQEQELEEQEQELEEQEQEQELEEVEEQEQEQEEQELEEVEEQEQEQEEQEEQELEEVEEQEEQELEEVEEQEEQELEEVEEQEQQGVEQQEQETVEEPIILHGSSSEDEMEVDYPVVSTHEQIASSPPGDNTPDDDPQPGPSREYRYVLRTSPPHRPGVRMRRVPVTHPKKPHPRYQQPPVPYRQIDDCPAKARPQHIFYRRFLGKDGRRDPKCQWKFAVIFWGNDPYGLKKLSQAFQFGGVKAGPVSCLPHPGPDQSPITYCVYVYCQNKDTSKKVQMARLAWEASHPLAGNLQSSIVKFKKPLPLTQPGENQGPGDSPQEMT
Mu-type opioid receptor, sequence (P35372 whole entry): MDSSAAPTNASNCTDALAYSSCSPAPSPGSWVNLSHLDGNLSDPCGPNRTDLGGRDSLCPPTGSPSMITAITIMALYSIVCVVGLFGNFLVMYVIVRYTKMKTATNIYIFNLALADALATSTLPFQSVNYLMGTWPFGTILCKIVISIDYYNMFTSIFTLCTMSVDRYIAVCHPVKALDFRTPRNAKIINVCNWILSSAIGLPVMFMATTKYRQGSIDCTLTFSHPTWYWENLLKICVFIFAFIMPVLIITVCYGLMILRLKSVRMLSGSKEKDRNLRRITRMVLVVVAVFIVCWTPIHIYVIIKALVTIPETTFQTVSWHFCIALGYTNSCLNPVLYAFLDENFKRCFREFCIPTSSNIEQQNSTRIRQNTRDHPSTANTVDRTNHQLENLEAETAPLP

CSCC[C@H](NC(=O)c1ccc(Cl)c(S(=O)(=O)N2CCCC2)c1)c1nc2ccccc2[nH]1
IC50 [1]: 5.06 µM (active)
IC50 [2]: 4.93 µM (active)

O=C1NC(=S)NC(=O)C1=Cc1cccn1-c1ccc(O)cc1
IC50 (SUMO-activating enzyme [3]): 7.4 µM (active)
CC50 (Vero [4]): 23 µM (active)
IC50 (SUMO-activating enzyme [5]): 21.9 µM (active)
AC50 [6]: 11.4 µM (active)
IC50 (Genome polyprotein): 34.2 µM (active)
CC50 (Vero [7]): 34.8 µM (active)
IC50 [8]: 4.82 µM (active)
IC50 (Large T antigen): 30.3 µM (active)
EC50 [9]: 10.6 µM (active)
IC50 [10]: 4.45 µM (active)

Cc1cccc(C)c1NC(=O)CSc1nnc(-c2ccco2)c(-c2ccco2)n1
IC50 (Estrogen receptor beta): 2 µM (not active)
AC50 (ORF 73): 160 µM (active)
IC50 (Leucine aminopeptidase): 18.9 µM (active)
IC50 [10]: 4.92 µM (active)

O=C1N=C(Nc2ccc(O)cc2)S/C1=C\C=C\c1ccco1
CC50 [11]: 2.84 µM (active)
IC50 (SUMO-activating enzyme [3]): 2.59 µM (active)
IC50 (SUMO-activating enzyme [5]): 30.8 µM (active)
IC50 (Large T antigen): 31.5 µM (active)

N#Cc1cccnc1Nc1ccc(Cl)cc1
AC50 [12]: 14.2 µM (active)

CCOC(=O)c1c(-c2ccccc2)oc2ccc(O)c(CN3CCN(C)CC3)c12
IC50 [13]: 6.85 µM (active)

Cc1ccc2c(c1)NC(C(=O)O)NS2(=O)=O (stereo not drawn)
IC50 [14]: 3.35 µM (active)
IC50 [15]: > 100 µM (not active)
IC50 [16]: 52.5 µM (active)
IC50 [17]: 56.9 µM (active)

COc1cc(C2c3sc(=O)[nH]c3SC3C4CCC(C4)C23)ccc1O (stereo not drawn)
IC50 [13]: 0.672 µM (active)

C=CCn1c(N)cc(=O)nc1SCC(=O)Nc1cccc2ccccc12
IC50 [18]: > 64 µM (inactive)

CCCOc1ccc(C(=O)CCC(=O)OCC(=O)Nc2cccc(S(N)(=O)=O)c2)cc1
AC50 [12]: > 100 µM (inactive)

Cc1cc(C)c2c(c1)/C(=N/NS(=O)(=O)c1ccc(Br)cc1)CCC2
Absolute IC50 (XBP1) (X-box-binding protein 1): 10 µM
EC50 [19]: > 195 µM (not active)

Cc1ccc(Nc2nc(N)nc(CN3CCN(c4ccccc4)CC3)n2)cc1Cl
EC50 (Mu-type opioid receptor): 92.5 µM (inactive)
Absolute IC50 (XBP1) (X-box-binding protein 1): 10 µM
EC50 (Streptococcus): 111 µM (active)
EC50 [20]: 8.53 µM (active)
EC50 (Streptokinase A): > 150 µM (not active)
EC50 [21]: 76.1 µM (inactive)

Cc1oc(-c2cccs2)nc1CSCC(=O)N1CCC2(CC1)OCCO2
AC50 [22]: 256 µM (active)
